According to patent US9499493B2, “2,4-pyrimidinediamine compounds and their uses” (Rigel Pharmaceuticals, Inc., priority 2002, dated 2016):

Tests used:
[1] = Mouse model of allergic asthma (ovalbumin); assay type: in vivo; settings: for methacoline-induced bronchocontriction: mouse, in vivo
Text: Mice are sensitized to ovalbumin (chicken protein) in the presence of an adjuvant (Alum) by the intraperitoneal route on day 0 and day 7. One week later, mice are challenged intranasally with ovalbumin on Days 14, 15 and 16 (more stringent model) or on Day 14 (less stringent model). This sensitization and challenge regimen leads to airway hyperresponsiveness and inflammation in the lungs, which are two dominant characteristics of human allergic asthma. In the mouse model, the in vivo airway responses are measured using a whole body plethysmograph which determines the PENH (enhanced Pause, Buxco Electronics). The PENH is a dimensionless value comprised of the peak inspiratory flow (PIF), peak expiratory flow (PEF), time of inspiration, time of expiration and relaxation time, and is considered a validated parameter of airway responsiveness. Responses to allergen challenge (OVA) are compared with animals challenged with saline only. Twenty-four hours after challenge, mice are exposed to increasing doses of methacholine (muscarinic receptor agonist) which results in smooth muscle contraction. […] In addition, a cellular infiltrate in the airway is observed in ovalbumin challenged mice when compared with the saline challenged mice. This cellular infiltrate is mainly characterized by eosinophils, but a smaller influx of neutrophils and mononuclear cells is also present.
The use of this model for the evaluation of small molecule inhibitors of mast cell degranulation has been validated is several ways. First, using mast cell deficient mice (W/W^v) it has been shown that the ovalbumin-induced responses are dependent upon the presence of mast cells.

[2] = system: cultured human mast cells (CHMC); assay: CHMC low cell density ionomycin activation: tryptase assay; assay type: cell-based
[3] = system: cultured human mast cells (CHMC); assay: CHMC low cell density IgE activation: tryptase assay; assay type: cell-based; settings: anti-IgE
Summary of the method: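 Degranulation was triggered with anti-IgE for 30 minutes at 37° C in cultured human mast cells seeded at low density (1000-1500 cells/well, chosen by donor) after a 1 hr equilibration in MT buffer. Released tryptase in cleared supernatant was quantified with a tryptase substrate at room temperature for 30 minutes.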

[4] = system: bone marrow derived mast cells (BMMC); assay: BMMC high cell density IgE activation: histamine; assay type: cell-based, mouse; settings: anti-IgE, second part of TABLE 1
Protocol: (§1) Inhibition of degranulation was measured at both low and high cell density by quantifying the release of the granule specific factors tryptase, histamine and hexosaminidase. Inhibition of release and/or synthesis of lipid mediators was assessed by measuring the release of leukotriene LTC4 and inhibition of release and/or synthesis of cytokines was monitored by quantifying TNF-α, IL-6 and IL-13. Tryptase and hexosaminidase were quantified using fluorogenic substrates as described in their respective examples. […] The protocols of the various assays are provided below.
(§2) After sensitizing, cells are counted, pelleted (1000 rpm, 5-10 minutes), and resuspended at 1-3×10^6 cells/ml in MT buffer. Add 100 ul of cell suspension to each well and 100 ul of compound dilutions. The final vehicle concentration is 0.5% DMSO. Incubate at 37° C. (5% CO2) for 1 hour. After 1 hour of compound treatment, stimulate cells with 6× stimulus (60 ng/ml DNP-BSA). Mix wells with the cells and allow plates to incubate at 37° C. (5% CO2) for one hour. After 1 hour incubation, pellet cells (10 minutes, 1000 RPM) and collect 200 ul per well of the supernatant, being careful not to disturb pellet, and transfer to a clean tube or 96-well plate. Place the supernatant plate on ice. During the 4-5 hour step (see next) perform the hexosiminidase assay. Resuspend cell pellet in 240 ul WEI-conditioned media containing 0.5% DMSO and corresponding concentration of compound. Incubate BMMC cells for 4-5 hours at 37° C. (5% CO2). After incubation, pellet cells (1000 RPM, 10 minutes) and collect 225 ul per well and place in −80° C. until ready to perform ELISAS. ELISAS are performed on appropriately diluted samples (determined empirically for each donor cell population so that the sample measurement falls within the standard curve) following the supplier's instructions.

[5] = system: bone marrow derived mast cells (BMMC); assay: BMMC high cell density IgE activation: TNFalpha; assay type: cell-based, mouse; settings: anti-IgE, second part of TABLE 1, read-out: BMMC anti-IgE TNF-alpha IC50
Protocol: as §1, §2

basophil cells [6] = assay: Basophil ionomycin activation: histamine release assay; assay type: cell-based, human; settings: Basophils
Protocol: (§3) The basophil activation assay was carried out using whole human peripheral blood from donors allergic to dust mites with the majority of the red blood cells removed by dextran sedimentation. Human peripheral blood was mixed 1:1 with 3% dextran T500 and RBCs were allowed to settle for 20-25 min. The upper fraction was diluted with 3 volumes of D-PBS and cells were spun down for 10 min at 1500 rpm, RT. Supernatant was aspirated and cells were washed in an equal volume MT-buffer. Finally, cells were resuspended in MT-buffer containing 0.5% DMSO in the original blood volume. 80 uL cells were mixed with 20 uL compound in the presence of 0.5% DMSO, in triplicate, in a V-bottom 96-well tissue culture plate. A dose range of 8 compound concentrations was tested resulting in a 10-point dose response curve including maximum (stimulated) and minimum (unstimulated) response. […] The cells were stimulated for 30 minutes at 37° C., 5% CO2. The plate was spun for 10 min at 1500 rpm at room temperature and 80 uL the supernatant was harvested for histamine content analysis using the histamine ELISA kit supplied by Immunotech. The ELISA was performed according to supplier's instructions.
Assays for ionomycin-induced basophil cell degranulation were carried out as described for the Basophil IgE or Dustmite Activation Assay (Section 6.4.6, supra), with the exception that following incubation with compound, cells were stimulated with 20 μl of 2 μM ionomycin.

[7] = Immediacy (time course) of inhibitory activity; assay type: cell-based; settings: FIG. 5
Jurkat cells = assay: Jurkat toxicity, Cell Titer Glo assay; assay type: cell-based; settings: 18 hours incubation
Protocol: Seed 50 μl cells (1×10^6/ml) into each well containing 50 μl compound. […] Shake plates for 1 minute to mix cells and compound. Incubate plates at 37° C. […] Next day, harvest 50 μl cells from each well, add to 50 μl Cell Titer Glo reagent ([…]). Shake plates for 1 minute. Read on luminometer.

[8] = Sheep model of allergic asthma (Ascaris suum challenge); assay type: in vivo; settings: aqueous suspension
Protocol: Sheep develop bronchoconstriction within minutes of exposure to inhaled antigen (Ascaris suum), with maximal airflow obstruction during the early allergic response (EAR). Release of preformed mast cell mediators is likely responsible for this early phase of airflow obstruction. […] In the sheep, AHR develops a few hours following antigen challenge, and can persist for up to 2 weeks.
In the sheep model of allergic asthma, sheep are administered aerosols of test article via an endotracheal tube, followed by an aerosol challenge with antigen extracted from the roundworm, Ascaris suum, to which the sheep are naturally allergic. Allergen challenge leads to direct bronchoconstriction (both EAR and LAR) and a persistent non-specific AHR. These three characteristics are similar to those seen in human allergic asthmatics. The activity of the test agent is determined by changes in the lung resistance (RL), which is calculated from measurements of transpulmonary pressure, flow, and respiratory volume. […] The LAR is a less pronounced increase in RL, which starts approximately 5-6 hours following allergen challenge and is resolved by 8 hours post-challenge. Twenty-four hours after the challenge, a dose response to carbachol is measured to determine the AHR, which is expressed as the dose of carbachol required to increase RL by 400% over baseline. (This measurement is referred to as the provocative concentration of carbachol that elicits a 400% increase in RL over baseline (PC400). The data are compared to historical control data for the same individual when administered a saline control aerosol and challenged with Ascaris suum.

[9] = system: cultured human mast cells (CHMC); assay: CHMC high cell density IgE activation: hexos (hexosaminidase) release; assay type: cell-based; settings: anti-IgE activation
Protocol: as §1
(§4) After sensitizing, cells are counted, pelleted (1000 rpm, 5-10 minutes), and resuspended at 1-2×10^6 cells/ml in MT buffer. Add 100 ul of cell suspension to each well and 100 ul of compound dilutions. The final vehicle concentration is 0.5% DMSO. Incubate at 37° C. (5% CO2) for 1 hour. After 1 hour of compound treatment, stimulate cells with 6× anti-IgE. Mix wells with the cells and allow plates to incubate at 37° C. (5% CO2) for one hour. After 1 hour incubation, pellet cells (10 minutes, 1000 RPM) and collect 200 ul per well of the supernatant, being careful not to disturb pellet. Place the supernatant plate on ice. During the 7-hour step (see next) perform tryptase assay on supernatant that had been diluted 1:500. Resuspend cell pellet in 240 ul of CM media containing 0.5% DMSO and corresponding concentration of compound. Incubate CHMC cells for 7 hours at 37° C. (5% CO2). After incubation, pellet cells (1000 RPM, 10 minutes) and collect 225 ul per well and place in −80° C. until ready to perform ELISAS. ELISAS are performed on appropriately diluted samples (determined empirically for each donor cell population so that the sample measurement falls within the standard curve) following the supplier's instructions.

[10] = system: bone marrow derived mast cells (BMMC); assay: BMMC high cell density IgE activation: LTC4; assay type: cell-based, mouse; settings: anti-IgE, second part of TABLE 1
Protocol: as §1, §2

B-cell line BJAB = assay: BJAB toxicity, Cell Titer Glo assay; assay type: cell-based; settings: 18 hours incubation
Protocol: Seed 50 μl cells (1×10^6/ml) into each well containing 50 μl compound. The final vehicle concentration is 0.5% DMSO, 1.5% MeOH. Shake plates for 1 minute to mix cells and compound. Incubate plates at 37° C. (5% CO2) for 18 hours. Next day, harvest 50 μl cells from each well, add to 50 μl Cell Titer Glo reagent ([…]). Shake plates for 1 minute. Read on luminometer.

[11] = system: cultured human mast cells (CHMC); assay: CHMC high cell density IgE activation: TNFalpha; assay type: cell-based; settings: anti-IgE activation; read-out: CHMC high density TNF-alpha
Protocol: as §1, §4

[12] = system: bone marrow derived mast cells (BMMC); assay: BMMC high cell density IgE activation: hexosaminidase; assay type: cell-based, mouse; settings: anti-IgE, second part of TABLE 1, read-out: BMMC anti-IgE hexos. IC50
Protocol: as §2
Hexosaminidase assay: In a solid black 96-well assay plate, add 50 uL hexosaminidase substrate (4-methylumbelliferyl-N-acetyl-(3-D-glucosaminide; 2 mM) to each well. Add 50 uL of BMMC cell supernatant (see above) to the hexoseaminidase substrate, place at 37° C. for 30 minutes and read the plate at 5, 10, 15, and 30 minutes on a spectrophotometer.

[13] = system: cultured human mast cells (CHMC); assay: CHMC high cell density IgE activation: histamine; assay type: cell-based; settings: anti-IgE activation
Protocol: as §1, §4

CHMC cells = assay: Phosphorylation of proteins downstream of Syk / LYN kinase in the FcεRI cascade, activated CHMC cells; assay type: cell-based, human; settings: FIG. 10
basophil cells [14] = assay: Basophil IgE activation: histamine release assay; assay type: cell-based, human; settings: Basophils, anti-IgE
Protocol: as §3

[15] = system: bone marrow derived mast cells (BMMC); assay: BMMC high cell density ionomycin activation: hexosaminidase; assay type: cell-based, mouse; settings: second part of TABLE 1, read-out: BMMC Ionomycin hexos. IC50
[16] = 45 mg/sheep, pretreatment 60 min

## C[C@@H]1C[C@H]2[C@@H]3CCC4=CC(=O)C=C[C@]4(C)[C@@]3(F)[C@@H](O)C[C@]2(C)[C@@]1(O)C(=O)CO [dexamethasone]
[1]
  methacoline-induced bronchocontriction: inhibitory effect

## CNC(=O)COc1cccc(Nc2ncc(F)c(Nc3ccc4c(n3)NC(=O)CO4)n2)c1 [R921304, 5-Fluoro-N2-(3-methylaminocarbonylmethyleneoxyphenyl)-N4-[2H-pyrido[3,2-b]-1,4-oxazin-3(4H)-one-6-yl]-2,4-pyrimidinediamine]
[2]
  IC50: > 10 µM
[3]
  IC50: 0.085 µM
[1]; intranasal, 20 mg/kg, 10 consecutive days (Day 7 through Day 16)
  ovalbumin-induced airway hyperresponsiveness to methacholine: able to inhibit

## CNC(=O)COc1cccc(Nc2ncc(F)c(Nc3ccc4c(c3)OCCO4)n2)c1 [R926495, N4-(3,4-Ethylenedioxyphenyl)-5-fluoro-N2-[3-(N-methylamino)carbonylmethyleneoxyphenyl]-2,4-pyrimidinediamine]
[4]
  IC50: 0.089 µM
[5]
  IC50: 0.077 µM
Basophil cells [6]
  IC50: > 10 µM
[7]
  onset of inhibitory activity: immediacy of the inhibitory activity
Jurkat cells
  IC50: > 10 µM
[8]; 45 mg/sheep, 60 minutes prior to allergen challenge
  LAR and AHR (in words): blocked
[8]; [16]
  AHR (% inhibition): 41%
  EAR (% inhibition): 33%
  LAR (% inhibition): 85%
[8]
  EAR (in words): greatly reduced
[9]
  IC50: 0.1 µM
[10]
  IC50: 0.24 µM
[2]
  IC50: > 10 µM
B-cell line BJAB
  IC50: > 10 µM
[11]
  IC50: 0.362 µM
[12]
  IC50: 0.056 µM
[13]
  IC50: 0.066 µM

## O=C(O)c1cc(=O)c2c(OCC(O)COc3cccc4oc(C(=O)O)cc(=O)c34)cccc2o1 [Cromolyn]
[1]; data not shown
  ovalbumin-induced airway hyperresponsiveness and inflammation: able to block

## CCCC1O[C@@H]2C[C@H]3[C@@H]4CCC5=CC(=O)C=C[C@]5(C)[C@H]4[C@@H](O)C[C@]3(C)[C@]2(C(=O)CO)O1 (stereo partly shown) [budesonide]
[1]
  methacoline-induced bronchocontriction: inhibitory effect

## CC(C)(C)n1nc(-c2ccc(Cl)cc2)c2c(N)ncnc21 [PP2, reference compound]
CHMC cells
  phosphorylation of proteins downstream of LYN kinase: inhibition

## Fc1cnc(Nc2ccc3c(c2)OC(F)(F)C(F)(F)O3)nc1Nc1ccc2c(c1)OC(F)(F)C(F)(F)O2 [R926037, N2,N4-Bis(3,4-tetrafluoroethylendioxyphenyl)-5-fluoro-2,4-pyrimidinediamine]
Basophil cells [14]
  IC50: > 10 µM
[15]
  IC50: > 10 µM
Basophil cells [6]
  IC50: > 10 µM
[12]
  IC50: > 10 µM
